From paper PMC6602958, “Pharmacokinetics of anti-infectious reagents in silkworms” (Scientific Reports, 2019)
Values after ≈ are worked out from the molar mass of the structure shown. Read-outs that look alike come from different tables or passages of the source.

Experiments:
Candida albicans [1] = assay: Antifungal activity (MIC) by micro dilution with or without silkworm hemolymph; assay type: cell-based
Procedure: Antimicrobial and antifungal activities of each compound were measured by a micro dilution method[19],[20]. To measure protein binding to antifungal activity, silkworm hemolymph was collected by cutting the pseudopodium using scissors, and centrifuged at 3000 rpm for 5 min at 4 °C.

Candida albicans [2] = assay: Silkworm infection model with Candida albicans (ED50); assay type: in vivo, Bombyx mori (silkworm); conditions: silkworm infection model with Candida albicans
[3] = Protein-binding capacity in silkworm hemolymph (filter unit, HPLC)
cytochrome P450 = assay: Decay of cytochrome P450 substrates in in vitro culture of the silkworm midgut (HPLC); conditions: for HPLC peak area of substrate, Sample 1 / HPLC peak area of substrate, Sample 2: midgut culture, raw data of Fig. 3
Procedure: Silkworm midgut was incubated in medium with cytochrome P450 substrates at 30 °C. The samples were collected, extracted by acetone, and evaporated. The amounts of substrates were determined by HPLC analysis.
Silkworms (5th instar, 5 days) were dissected in a buffer (10 mM HEPES/NaOH, 0.9% NaCl, pH 7.9), and isolated organs were incubated with 3 mL TC-100 medium containing 10% fetal bovine serum, 50 µg/ml gentamicin, and substrates for the metabolic reaction. Whole samples (medium and organ) were homogenized and extracted by equal volumes of acetone followed by evaporation. Extracted samples were dissolved in 50 mM NaOAc buffer and treated with beta-glucosidase to measure the fluorescence of metabolized 7-ethoxycoumarin[6]. […] Samples for HPLC were dissolved in 50% methanol. HPLC analysis was performed using a PEGASIL ODS SP column (φ4.5 mm × 250 mm) with isocratic elution at a flow rate of 1 ml/min.

[4] = human serum; ref Schafer-Korting et al. 27; cited from earlier work
[5] = rabbit, dose 10 mg/kg; cited from earlier work
[6] = Pharmacokinetics of antibiotics in silkworm hemolymph after injection (HPLC); conditions: for HPLC peak area in hemolymph: raw data of Fig. 1
Procedure: Antibiotics were injected into silkworm hemolymph and hemolymph was collected by cutting the legs at the indicated time.
Antibiotics dissolved in saline were injected into the hemolymph of 5th instar silkworms using a 1-mL syringe attached to a 27 G needle. Hemolymph was harvested from abdominal appendages by cutting them with scissors at the indicated time-points after administration, and mixed with an equal volume of acetone. Samples were centrifuged at 15,000 rpm for 5 min at 4 °C, and the supernatants were evaporated with a centrifuge evaporator[18]. The dried materials were dissolved in 50% methanol and filtrated through a 0.45-µm filter. […] The amount of antibiotics in the sample was quantified from the peak area of the chromatogram.

[7] = read-out: MIC with 10% hemolymph (B), with 10% silkworm hemolymph
[8] = without silkworm hemolymph, read-out: MIC without hemolymph (A)

Clc1ccccc1C(c1ccccc1)(c1ccccc1)n1ccnc1 [Clotrimazole]
MIC (Candida albicans [1]; [7]): 1.3 µg/mL (≈ 3.77 µM) | MIC (Candida albicans [1]; [8]): 0.04 µg/mL (≈ 0.116 µM) | fraction unbound at 10 min, 10 µM (in vitro): < 0.01 | ED50 (Candida albicans [2]): > 10 mg/kg

CC(=O)N1CCN(c2ccc(OCC3COC(Cn4ccnc4)(c4ccc(Cl)cc4Cl)O3)cc2)CC1 (stereo not drawn) [Ketoconazole]
MIC (Candida albicans [1]; [7]): 1.3 µg/mL (≈ 2.45 µM) | MIC (Candida albicans [1]; [8]): 0.04 µg/mL (≈ 0.0753 µM) | ED50 (Candida albicans [2]): > 10 mg/kg | fraction unbound at 10 min, 10 µM [3]: < 0.01 | Protein-binding capacity in silkworm hemolymph (in words) ([3]; silkworm hemolymph): high protein-binding capacities in silkworm hemolymph | Metabolism in the silkworm midgut (in words) (cytochrome P450; in vitro organ culture, up to 20 h incubation): metabolized in the silkworm midgut | HPLC peak area of substrate, Sample 1 (cytochrome P450; 0 h): 250139 | HPLC peak area of substrate, Sample 2 (cytochrome P450; 0 h): 234783 | HPLC peak area of substrate, Sample 1 (cytochrome P450; 1 h): 277669 | HPLC peak area of substrate, Sample 2 (cytochrome P450; 1 h): 251170 | HPLC peak area of substrate, Sample 1 (cytochrome P450; 4 h): 205212 | HPLC peak area of substrate, Sample 2 (cytochrome P450; 4 h): 213216 | HPLC peak area of substrate, Sample 1 (cytochrome P450; 20 h): 217123 | HPLC peak area of substrate, Sample 2 (cytochrome P450; 20 h): 164912 | Protein binding (%) mammal [4]: 99%

CN(C)[C@@H]1C(O)=C(C(N)=O)C(=O)[C@@]2(O)C(O)=C3C(=O)c4c(O)cccc4[C@@](C)(O)[C@H]3C[C@@H]12 [Tetracycline]
Cltot [5]: 0.35 mL/g/h | HPLC peak area in hemolymph ([6]; 0.1 min after injection): 10505876 | HPLC peak area in hemolymph ([6]; 1 min after injection): 8079061 | HPLC peak area in hemolymph ([6]; 5 min after injection): 4188656 | HPLC peak area in hemolymph ([6]; 10 min after injection): 3076056 | HPLC peak area in hemolymph ([6]; 20 min after injection): 2727973 | HPLC peak area in hemolymph ([6]; 30 min after injection): 1928231 | HPLC peak area in hemolymph ([6]; 60 min after injection): 2239912 | HPLC peak area in hemolymph ([6]; 90 min after injection): 1941121 | HPLC peak area in hemolymph ([6]; 120 min after injection): 1803643 | HPLC peak area in hemolymph ([6]; 180 min after injection): 1414738 | HPLC peak area in hemolymph ([6]; 240 min after injection): 1202608 | Time-course of the decrease in concentration in hemolymph (in words) ([6]; after administration into hemolymph, alpha and beta phase, two-compartment model): biphasic | Cltot (total body clearance) ([6]; silkworm, injection into hemolymph, two-compartment model, dose per compound 10-50 mg/kg): 0.07 mL/g/h
